This note sets out measurements from patent US11952388B2, “Crystal form of tri-cycle compound and application thereof” (FUJIAN AKEYLINK BIOTECHNOLOGY CO., LTD., priority 2018, dated 2024).

As a reminder, the half-life is how long it takes for the measured level to halve. Low values mean fast loss, high ones slow loss. Usually Cmax stands for the maximum level reached in the sampled fluid or tissue. The Tmax is the time at which the peak concentration occurs. For orientation: bioavailability means the share of a dose that reaches the circulation, judged against a reference dose that is usually intravenous. A lower bioavailability goes with poor availability.

Data set [1] in a line: Pharmacokinetics of oral administration and intravenous injection in Balb/c mice. The class given is in vivo. The conditions noted are these: female, mouse, plasma. The procedure:
(§1) 1. Study on the Pharmacokinetics of Oral Administration and Intravenous Injection of the Compound Represented by Formula (I) in Balb/c Mice The compound represented by formula (I) was mixed with 5% DMSO/55% polyethylene glycol 400/40% aqueous solution, vortexed and sonicated to obtain an approximately clear solution of 1 mg/mL, which was then filtered by a microporous membrane for later use. Female Balb/c mice aged 7 to 10 weeks were selected and the candidate compound solution was administered intravenously at a dose of 1 mg/kg. The compound represented by formula (I) was mixed with 10% solutol (polyethylene glycol-15 hydroxystearate) aqueous solution, vortexed and sonicated to obtain an approximately clear solution of 1 mg/mL, which was then filtered through a microporous membrane for later use. Female Balb/c mice aged 7 to 10 weeks were selected and the candidate compound solution was orally administered at a dose of 10 mg/kg. Whole blood was collected at a certain period of time to prepare plasma, drug concentration was analyzed by LC-MS/MS method, and pharmacokinetic parameters was calculated by Phoenix WinNonlin software (Pharsight, USA). Note: T1/2 means half-life; Vdss means apparent volume of distribution; Cl means clearance rate; AUC0_last means area below the drug-time curve; Tmax means peak time; Cmax means peak concentration; F % means oral bioavailability; iv means intravenous injection; PO means oral administration; mpk means mg/kg.

Data set [2] concerns proteins in CD-1 mouse plasma. Put plainly: Plasma protein binding rate (equilibrium dialysis). The class given is in vitro ADME, CD-1 mouse (mus musculus). How it is done: (§2) Objectives of Experiment: to determine the binding rate of test compound to proteins in human and CD-1 mouse plasma
(§3) Experimental operation: 796 μL of blank plasma was taken from human and CD-1 mouse, and 4 μL of test compound working solution (400 μM) or warfarin working solution (400 μM) was added to make the final concentrations of both test compound and warfarin in the plasma sample 2 μM. The sample was mixed thoroughly. The final concentration of DMSO in the organic phase was 0.5%; 50 μt of plasma samples of test compound and warfarin was pipetted into the sample receiving plate (in triplicate), and immediately the corresponding volume of blank plasma or buffer was added to make the final volume of each sample 100 μL and the volume ratio of plasma:dialysis buffer 1:1. Then 400 μL of stop solution is added to these samples. These samples would be used as TO samples for determination of recovery and stability. […] All samples were analyzed by LC/MS/MS after protein precipitation, and the protein binding rate and recovery rate was calculated with the formula: % Unbound (unbound rate)=100*FC/TC, % Bound (bound rate)=100-% Unbound, % Recovery (recovery rate)=100*(FC+TC)/T0.
In general terms: In equilibrium dialysis free small molecules cross a membrane that holds back macromolecules.

In the next data set the test system is proteins in human plasma. Briefly: Plasma protein binding rate (equilibrium dialysis). It counts as in vitro ADME. The procedure:
as §2, §3

Data set [3] is described as follows: Pharmacokinetics of oral administration and intravenous injection in SD rats. The class given is in vivo. The conditions noted are these: male, rat, plasma. The procedure:
as §1, with “2.” for “1.”, “SD Rats” for “Balb/c Mice”, “Male SD rats” for “Female Balb/c mice”, “solutol” for “solutol (polyethylene glycol-15 hydroxystearate)”

[4] abbreviates: 1 mg/kg, iv 1 mpk, read-out: AUC0-last.
[5] abbreviates: 1 mg/kg, iv 1 mpk, read-out: Vdss.
Setting [6] is: 10 mg/kg, po 10 mpk, read-out: AUC0-24h.

Turning to `Cc1cc2n(c1)S(=O)(=O)c1ccc(C(=O)NCC[C@H]3COCCO3)cc1NC2=O` [compound represented by formula (I)], the clearance in data set [1] (1 mg/kg, iv 1 mpk) turned out to be 8.5 mL/min/kg; in data set [3] (1 mg/kg, iv 1 mpk), 8.5 mL/min/kg. The half-life in data set [1] (1 mg/kg, iv 1 mpk) is 72 min; in data set [3] (1 mg/kg, iv 1 mpk), 57 min. Besides, the AUC(0-t) worked out at 4.67 µM·h in data set [1] (setting [4]), 32.5 µM·h in data set [1] (setting [6]), 4.82 µM·h in data set [3] (setting [4]) and 31.1 µM·h in data set [3] (setting [6]). Also, the Vd in data set [1] (setting [5]) was 0.45 L/kg; in data set [3] (setting [5]) it was 0.56 L/kg. Moreover, the maximum concentration (Cmax) in data set [1] (10 mg/kg, po 10 mpk) was found to be 19.9 µM; in data set [3] (10 mg/kg, po 10 mpk), 8.57 µM. The Tmax in data set [1] (10 mg/kg, po 10 mpk) is 30 min; in data set [3] (10 mg/kg, po 10 mpk), 30 min. For the same compound, the bioavailability in data set [1] (10 mg/kg, po 10 mpk) was found to be 70%; in data set [3] (10 mg/kg, po 10 mpk) it was 65%. The “binding rate to plasma proteins (conclusion in words)” value (in data set [2]; in the data set with proteins in human plasma) was “lower binding rate” throughout. The “Binding rate of plasma protein” value in data set [2] (2 μM) was determined as 94%; with proteins in human plasma (2 μM), 81%.
